Experimental data: publication PMC5916808 (Journal of medicinal chemistry, 2017)
Several values for one entry are separate records, joined by “and”; a condition that tells them apart may be missing. Equal entries are not always repeated. Blank lines part the entries; values can stand above or below the molecule they belong to.

How the values were obtained:
[1] = test system: AMPA or kainate receptors; conditions: cited from earlier work
[2] = ref Jensen, Egebjerg, Bundgaard, unpublished data; cited from earlier work
[3] = cited from earlier work
[4] = biological target: T1, GluN1/GluN2C NMDA receptors (Rattus norvegicus, UniProt Q00961); assay type: cell-based
[5] = biological target: GluN1/GluN2B NMDA receptors (Rattus norvegicus, UniProt Q00960); assay type: cell-based; conditions: for fold increase in potency at GluN2B, thioamide compared to amide: 138 vs 2, 142 vs 97
[6] = Pharmacokinetics and brain penetration after IP dosing, LC/MS/MS; assay type: in vivo, C57Bl/6 mice
[7] = biological target: T2, GluN1/GluN2D NMDA receptors (Rattus norvegicus, UniProt Q62645); assay type: cell-based
[8] = biological target: GluK2 (Rattus norvegicus, UniProt P42260); test: Two-electrode voltage clamp, GluK2 homomeric receptors in Xenopus oocytes; assay type: cell-based; conditions: 30 μM compound co-applied with 100 μM glutamate and 30 μM glycine, n=9
[9] = biological target: T1, GluN1/GluN2C NMDA receptors; conditions: 30 μM; previously published data; cited from earlier work
[10] = biological target: T2, GluN1/GluN2D NMDA receptors; conditions: 30 μM; previously published data; cited from earlier work
[11] = test system: GluN1/GluN2A, GluN1/GluN2B, GluN1/GluN2C, and GluN1/GluN2D NMDA receptors; test: Two-electrode voltage clamp, activity profile across GluN2 subunits; assay type: cell-based, rat; conditions: potentiation of response to maximal glutamate and glycine
[12] = Solubility of test compound in oocyte recording solution; assay type: physicochemical; conditions: aqueous buffer
[13] = biological target: GluN1/GluN2D NMDA receptors (Rattus norvegicus, UniProt P35439+Q62645); assay type: cell-based
[14] = test system: GluN1/GluN2B receptors; conditions: noncompetitive inhibitor; cited from earlier work
[15] = 30 μM co-applied with either 30 μM glutamate or 10 μM glycine
[16] = percentage of the initial glutamate (100 μM) and glycine (30 μM) current

Chain of GluN1/GluN2B NMDA receptors (Q00960 27-1482, other chains not shown): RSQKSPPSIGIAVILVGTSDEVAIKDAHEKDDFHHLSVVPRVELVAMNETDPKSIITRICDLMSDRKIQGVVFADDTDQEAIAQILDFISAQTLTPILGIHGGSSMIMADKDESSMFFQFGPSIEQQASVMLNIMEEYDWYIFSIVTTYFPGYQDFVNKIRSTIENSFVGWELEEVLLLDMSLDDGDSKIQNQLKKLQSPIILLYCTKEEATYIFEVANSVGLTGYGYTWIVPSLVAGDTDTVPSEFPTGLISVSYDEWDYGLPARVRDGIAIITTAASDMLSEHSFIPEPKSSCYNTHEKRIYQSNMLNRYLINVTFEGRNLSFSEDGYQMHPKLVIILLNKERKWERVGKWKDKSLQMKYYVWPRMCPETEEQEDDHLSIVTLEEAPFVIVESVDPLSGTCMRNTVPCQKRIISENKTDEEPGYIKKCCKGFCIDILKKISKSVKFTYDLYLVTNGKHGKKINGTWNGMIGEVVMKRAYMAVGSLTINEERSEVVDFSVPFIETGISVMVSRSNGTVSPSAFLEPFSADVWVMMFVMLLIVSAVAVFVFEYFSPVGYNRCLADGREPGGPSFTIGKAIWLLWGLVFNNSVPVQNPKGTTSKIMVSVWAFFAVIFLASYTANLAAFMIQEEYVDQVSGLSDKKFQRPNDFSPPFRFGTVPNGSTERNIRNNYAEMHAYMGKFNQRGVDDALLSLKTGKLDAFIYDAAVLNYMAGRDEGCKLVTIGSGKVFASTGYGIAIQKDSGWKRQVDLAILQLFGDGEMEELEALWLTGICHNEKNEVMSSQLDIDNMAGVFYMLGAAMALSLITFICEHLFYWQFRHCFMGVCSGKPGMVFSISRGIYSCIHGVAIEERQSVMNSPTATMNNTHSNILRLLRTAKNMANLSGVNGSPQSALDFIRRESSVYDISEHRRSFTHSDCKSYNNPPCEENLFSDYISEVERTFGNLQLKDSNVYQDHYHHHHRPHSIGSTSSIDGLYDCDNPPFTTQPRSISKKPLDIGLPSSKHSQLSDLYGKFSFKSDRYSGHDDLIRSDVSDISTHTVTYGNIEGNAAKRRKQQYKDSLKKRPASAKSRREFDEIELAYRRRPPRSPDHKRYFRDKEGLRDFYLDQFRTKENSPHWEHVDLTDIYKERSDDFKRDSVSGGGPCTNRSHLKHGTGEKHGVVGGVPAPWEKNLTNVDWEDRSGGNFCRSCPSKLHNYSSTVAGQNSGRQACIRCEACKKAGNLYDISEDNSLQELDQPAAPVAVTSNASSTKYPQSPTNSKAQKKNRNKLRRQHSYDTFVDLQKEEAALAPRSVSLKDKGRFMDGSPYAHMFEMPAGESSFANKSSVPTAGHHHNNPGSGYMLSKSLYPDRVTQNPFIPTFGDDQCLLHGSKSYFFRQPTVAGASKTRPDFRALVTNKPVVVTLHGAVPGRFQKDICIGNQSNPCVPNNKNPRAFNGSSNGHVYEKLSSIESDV
T2 sequence (Q62645 28-1323, other chains not shown): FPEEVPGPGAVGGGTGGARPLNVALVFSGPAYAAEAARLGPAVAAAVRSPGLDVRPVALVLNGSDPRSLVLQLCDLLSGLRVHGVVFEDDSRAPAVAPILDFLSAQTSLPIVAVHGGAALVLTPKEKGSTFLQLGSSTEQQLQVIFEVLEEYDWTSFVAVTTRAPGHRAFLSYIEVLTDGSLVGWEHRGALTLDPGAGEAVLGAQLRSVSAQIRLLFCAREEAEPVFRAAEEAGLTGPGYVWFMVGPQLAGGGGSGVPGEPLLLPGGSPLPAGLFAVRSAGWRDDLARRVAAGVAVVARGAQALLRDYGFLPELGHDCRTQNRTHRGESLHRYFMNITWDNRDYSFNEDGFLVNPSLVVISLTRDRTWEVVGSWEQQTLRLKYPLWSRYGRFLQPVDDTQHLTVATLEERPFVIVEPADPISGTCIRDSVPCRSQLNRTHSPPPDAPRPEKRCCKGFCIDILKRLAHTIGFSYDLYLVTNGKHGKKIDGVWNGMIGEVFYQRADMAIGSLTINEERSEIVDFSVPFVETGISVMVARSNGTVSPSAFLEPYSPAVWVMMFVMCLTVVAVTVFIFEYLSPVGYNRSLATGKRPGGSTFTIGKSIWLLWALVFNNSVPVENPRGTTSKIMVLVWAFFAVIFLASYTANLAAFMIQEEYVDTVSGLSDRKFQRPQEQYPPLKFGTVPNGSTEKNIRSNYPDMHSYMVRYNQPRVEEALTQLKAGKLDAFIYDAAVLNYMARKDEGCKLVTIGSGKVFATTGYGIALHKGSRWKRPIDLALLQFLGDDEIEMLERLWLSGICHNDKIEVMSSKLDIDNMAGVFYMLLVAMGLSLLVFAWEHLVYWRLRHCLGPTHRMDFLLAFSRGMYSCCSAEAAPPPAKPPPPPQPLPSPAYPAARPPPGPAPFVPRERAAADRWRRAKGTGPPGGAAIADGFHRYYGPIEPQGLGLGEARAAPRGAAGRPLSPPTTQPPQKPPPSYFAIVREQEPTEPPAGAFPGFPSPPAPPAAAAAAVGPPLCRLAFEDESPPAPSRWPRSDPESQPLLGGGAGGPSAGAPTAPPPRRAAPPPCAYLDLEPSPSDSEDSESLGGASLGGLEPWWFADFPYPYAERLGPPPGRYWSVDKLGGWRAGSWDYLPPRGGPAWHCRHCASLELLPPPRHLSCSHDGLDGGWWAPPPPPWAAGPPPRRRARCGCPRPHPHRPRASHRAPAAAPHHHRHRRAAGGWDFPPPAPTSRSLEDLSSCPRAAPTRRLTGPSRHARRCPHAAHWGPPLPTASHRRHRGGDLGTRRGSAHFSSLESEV
T1 sequence (Q00961 20-1237, other chains not shown): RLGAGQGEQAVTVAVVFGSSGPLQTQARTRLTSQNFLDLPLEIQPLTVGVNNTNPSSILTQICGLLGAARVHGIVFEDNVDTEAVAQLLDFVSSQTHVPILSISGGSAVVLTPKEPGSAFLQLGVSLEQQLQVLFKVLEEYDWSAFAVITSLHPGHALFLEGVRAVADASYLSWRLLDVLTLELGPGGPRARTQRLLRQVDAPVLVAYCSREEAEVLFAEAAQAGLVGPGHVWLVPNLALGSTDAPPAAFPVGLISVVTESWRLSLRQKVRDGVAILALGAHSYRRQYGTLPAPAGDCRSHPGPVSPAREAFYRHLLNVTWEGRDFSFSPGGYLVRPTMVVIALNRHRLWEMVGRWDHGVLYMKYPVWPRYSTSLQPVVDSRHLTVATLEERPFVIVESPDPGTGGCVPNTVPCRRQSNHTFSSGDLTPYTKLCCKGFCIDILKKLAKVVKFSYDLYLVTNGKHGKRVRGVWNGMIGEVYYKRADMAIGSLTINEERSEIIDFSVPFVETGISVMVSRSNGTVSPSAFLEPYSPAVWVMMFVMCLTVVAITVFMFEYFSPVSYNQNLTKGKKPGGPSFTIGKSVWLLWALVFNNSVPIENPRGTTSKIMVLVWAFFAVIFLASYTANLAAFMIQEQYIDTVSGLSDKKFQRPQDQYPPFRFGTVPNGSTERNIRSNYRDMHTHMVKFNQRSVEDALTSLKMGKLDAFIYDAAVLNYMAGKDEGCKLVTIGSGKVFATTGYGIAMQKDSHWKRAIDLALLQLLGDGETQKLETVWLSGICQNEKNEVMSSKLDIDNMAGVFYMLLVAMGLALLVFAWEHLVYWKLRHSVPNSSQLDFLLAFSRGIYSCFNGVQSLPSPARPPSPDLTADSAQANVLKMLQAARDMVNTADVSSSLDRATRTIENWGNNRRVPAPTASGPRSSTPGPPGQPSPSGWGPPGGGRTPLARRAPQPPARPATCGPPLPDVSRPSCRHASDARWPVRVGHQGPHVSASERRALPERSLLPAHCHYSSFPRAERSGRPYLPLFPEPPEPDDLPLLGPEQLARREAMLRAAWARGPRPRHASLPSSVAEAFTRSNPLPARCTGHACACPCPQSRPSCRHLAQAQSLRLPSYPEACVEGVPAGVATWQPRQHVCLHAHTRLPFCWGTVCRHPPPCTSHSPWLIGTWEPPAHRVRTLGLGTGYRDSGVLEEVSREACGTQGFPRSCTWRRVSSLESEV
Chain of GluN1/GluN2D NMDA receptors (Rattus norvegicus, UniProt P35439+Q62645) (Q62645 28-1323, other chains not shown): as the sequence (Q62645 28-1323, other chains not shown) above
Chain of GluK2 (P42260 32-908): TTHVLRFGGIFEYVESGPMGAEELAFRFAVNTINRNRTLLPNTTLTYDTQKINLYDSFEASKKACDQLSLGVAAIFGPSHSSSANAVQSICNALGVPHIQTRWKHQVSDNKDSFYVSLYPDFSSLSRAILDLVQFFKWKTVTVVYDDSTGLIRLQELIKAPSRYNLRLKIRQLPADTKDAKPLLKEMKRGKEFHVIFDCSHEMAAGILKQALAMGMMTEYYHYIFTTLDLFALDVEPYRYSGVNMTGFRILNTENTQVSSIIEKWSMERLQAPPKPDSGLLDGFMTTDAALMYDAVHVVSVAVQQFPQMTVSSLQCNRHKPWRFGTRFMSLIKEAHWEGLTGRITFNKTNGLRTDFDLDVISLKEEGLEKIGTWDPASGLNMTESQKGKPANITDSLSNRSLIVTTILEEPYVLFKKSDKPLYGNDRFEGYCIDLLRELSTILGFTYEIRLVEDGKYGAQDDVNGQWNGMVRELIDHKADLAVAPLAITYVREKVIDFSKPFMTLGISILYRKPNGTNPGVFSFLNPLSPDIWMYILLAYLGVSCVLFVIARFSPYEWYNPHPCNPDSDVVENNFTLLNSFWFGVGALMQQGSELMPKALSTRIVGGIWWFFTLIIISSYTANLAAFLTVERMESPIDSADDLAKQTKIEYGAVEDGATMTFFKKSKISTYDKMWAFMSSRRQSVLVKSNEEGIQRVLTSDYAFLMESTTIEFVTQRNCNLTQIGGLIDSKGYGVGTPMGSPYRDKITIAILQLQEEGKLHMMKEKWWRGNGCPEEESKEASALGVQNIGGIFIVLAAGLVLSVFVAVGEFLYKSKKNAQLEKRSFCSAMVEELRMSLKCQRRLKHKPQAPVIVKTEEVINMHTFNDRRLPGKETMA

SMILES: COc1ccc(OCC2c3cc(OC)c(OC)cc3CCN2C(=O)c2cccc(Cl)c2)cc1 (stereo not shown) [CIQ]
effect on AMPA or kainate receptors [1]: no effect on AMPA or kainate receptors
protein binding [2]: high protein binding
brain penetration [3]: brain penetrant

agonist activity at GluN1/GluN2C [4, 15]: no agonist activity
agonist activity at GluN1/GluN2B [5, 15]: no agonist activity
brain concentration ([6]; 10 mg/kg IP, at 15 and 30 min): 303 ng/mL
peak plasma concentration ([6]; 10 mg/kg IP, at 2 hours, n=3 mice): 789 ng/mL and 1.7 μM
concentration at 4 h ([6]; C57Bl/6, mouse, brain, intraperitoneal, 10 mg/kg): 169 ng/mL
Tmax ([6]; C57Bl/6, mouse, plasma, ip, 10 mg/kg): 2 h
agonist activity at GluN1/GluN2D [7, 15]: no agonist activity
response as % of the control response to glutamate alone, GluK2 [8]: 96+9%
SMILES: COc1ccc(OCC2c3ccc(OC(C)C)cc3CCN2C(=O)c2cccc(Cl)c2)cc1 (stereo not shown) [Compound 2, (3-Chlorophenyl)(6-isopropoxy-1-((4-methoxyphenoxy)methyl)-3,4-dihydroisoquinolin-2(1H)-yl)methanone]
behavioral observations post-dosing ([6]; 10 mg/kg i.p.): No behavioral abnormalities were observed

SMILES: COc1ccc(OCC2c3ccc(OC)cc3CCN2C(=O)c2cccc(Cl)c2)cc1 (stereo not shown) [Compound 86]
I30μM / Icontrol (mean ± SEM, %) GluN2C [9]: 213 ± 13%
I30μM / Icontrol (mean ± SEM, %) GluN2D [10]: 215 ± 19%

activity / subunit selectivity in words [11]: inactive at all subunits
SMILES: CCOc1ccc(OCC2c3ccc(OC(C)C)cc3CCN2C(=O)c2ccccc2)cc1 (stereo not shown) [Compound 95, (1-((4-Ethoxyphenoxy)methyl)-6-isopropoxy-3,4-dihydroisoquinolin-2(1H)-yl)(phenyl)methanone]

activity / subunit selectivity in words [11]: active at only GluN2B
SMILES: CCOc1ccc(OCC2c3ccc(OC(C)C)cc3CCN2C(=O)c2cccc(F)c2)cc1 (stereo not shown) [Compound 97, (1-((4-Ethoxyphenoxy)methyl)-6-isopropoxy-3,4-dihydroisoquinolin-2(1H)-yl)(3-fluorophenyl)methanone]

solubility [12]: < 30 µM
SMILES: CCOc1ccc(OCC2c3ccc(OC(C)C)cc3CCN2C(=O)c2cccc(-c3ccccc3)c2)cc1 (stereo not shown) [Compound 99, Biphenyl-3-yl(1-((4-ethoxyphenoxy)methyl)-6-isopropoxy-3,4-dihydroisoquinolin-2(1H)-yl)methanone]
activity / subunit selectivity in words [11]: inactive

SMILES: CCOc1ccc(OCC2c3ccc(OC(C)C)cc3CCN2C(=O)c2cccc(C)c2)cc1 (stereo not shown) [Compound 100, (1-((4-Ethoxyphenoxy)methyl)-6-isopropoxy-3,4-dihydroisoquinolin-2(1H)-yl)(m-tolyl)methanone]
activity / subunit selectivity in words [11]: inactive

SMILES: CCOc1ccc(OCC2c3ccc(OC(C)C)cc3CCN2C(=O)c2cccc(OC)c2)cc1 (stereo not shown) [Compound 101, (1-((4-Ethoxyphenoxy)methyl)-6-isopropoxy-3,4-dihydroisoquinolin-2(1H)-yl)(3-methoxyphenyl)methanone]
activity / subunit selectivity in words [11]: inactive

activity / subunit selectivity in words [11]: complete loss of activity
SMILES: CCOc1ccc(OCC2c3ccc(OC(C)C)cc3CCN2C(=O)c2ccccc2F)cc1 (stereo not shown) [Compound 102, (1-((4-Ethoxyphenoxy)methyl)-6-isopropoxy-3,4-dihydroisoquinolin-2(1H)-yl)(2-fluorophenyl)methanone]

activity / subunit selectivity in words [11]: complete loss of activity
SMILES: CCOc1ccc(OCC2c3ccc(OC(C)C)cc3CCN2C(=O)c2ccccc2Cl)cc1 (stereo not shown) [Compound 103, (2-Chlorophenyl)(1-((4-ethoxyphenoxy)methyl)-6-isopropoxy-3,4-dihydroisoquinolin-2(1H)-yl)methanone]

activity / subunit selectivity in words [11]: complete loss of activity
SMILES: CCOc1ccc(OCC2c3ccc(OC(C)C)cc3CCN2C(=O)c2ccc(F)cc2)cc1 (stereo not shown) [Compound 104, (1-((4-Ethoxyphenoxy)methyl)-6-isopropoxy-3,4-dihydroisoquinolin-2(1H)-yl)(4-fluorophenyl)methanone]

activity / subunit selectivity in words [11]: complete loss of activity
SMILES: CCOc1ccc(OCC2c3ccc(OC(C)C)cc3CCN2C(=O)c2ccc(Cl)cc2)cc1 (stereo not shown) [Compound 105, (4-Chlorophenyl)(1-((4-ethoxyphenoxy)methyl)-6-isopropoxy-3,4-dihydroisoquinolin-2(1H)-yl)methanone]

SMILES: CCOc1ccc(OCC2c3ccc(OC(C)C)cc3CCN2C(=O)c2ccc(F)c(F)c2)cc1 (stereo not shown) [Compound 106, (3,4-Difluorophenyl)(1-((4-ethoxyphenoxy)methyl)-6-isopropoxy-3,4-dihydroisoquinolin-2(1H)-yl)methanone]
activity / subunit selectivity in words [11]: active

solubility [12]: < 10 µM
SMILES: CCOc1ccc(OCC2c3ccc(OC(C)C)cc3CCN2C(=O)c2ccc(Cl)c(Cl)c2)cc1 (stereo not shown) [Compound 107, (3,4-Dichlorophenyl)(1-((4-ethoxyphenoxy)methyl)-6-isopropoxy-3,4-dihydroisoquinolin-2(1H)-yl)methanone]
activity / subunit selectivity in words [11]: active

SMILES: CCOc1ccc(OCC2c3ccc(OC(C)C)cc3CCN2C(=O)c2ccc(F)c(Cl)c2)cc1 (stereo not shown) [Compound 108, (3-Chloro-4-fluorophenyl)(1-((4-ethoxyphenoxy)methyl)-6-isopropoxy-3,4-dihydroisoquinolin-2(1H)-yl)methanone]
activity / subunit selectivity in words [11]: active

solubility [12]: < 30 µM
SMILES: CCOc1ccc(OCC2c3ccc(OC(C)C)cc3CCN2C(=O)c2cc(Cl)cc(Cl)c2)cc1 (stereo not shown) [Compound 109]

activity / subunit selectivity in words [11]: all activity was lost
SMILES: COc1ccccc1OCC1c2ccc(OC(C)C)cc2CCN1C(=O)c1cccc(Cl)c1 (stereo not shown) [Compound 111, (3-Chlorophenyl)(6-isopropoxy-1-((2-methoxyphenoxy)methyl)-3,4-dihydroisoquinolin-2(1H)-yl)methanone]

activity / subunit selectivity in words [11]: moderately GluN2B-selective
SMILES: CC(C)Oc1ccc(OCC2c3ccc(OC(C)C)cc3CCN2C(=O)c2cccc(Cl)c2)cc1 (stereo not shown) [Compound 113, (3-Chlorophenyl)(6-isopropoxy-1-((4-isopropoxyphenoxy)methyl)-3,4-dihydroisoquinolin-2(1H)-yl)methanone]

fitted maximum response GluN2B [5, 16]: 391%
EC50 [13]: 11 µM
fitted maximum response GluN2D [7, 16]: 493%
SMILES: COc1ccc(OCC2c3ccc(OC(C)C)cc3CCN2C(=O)c2cccc(F)c2)cc1 (stereo not shown) [Compound 114, (3-Fluorophenyl)(6-isopropoxy-1-((4-methoxyphenoxy)methyl)-3,4-dihydroisoquinolin-2(1H)-yl)methanone]

fold increase in potency at GluN2C, thioamide compared to amide ([4]; 138 vs 2): ~4 fold
fold increase in potency at GluN2B, thioamide compared to amide [5]: ~10 fold
fold increase in potency at GluN2D, thioamide compared to amide ([7]; 138 vs 2): ~10 fold
SMILES: COc1ccc(OCC2c3ccc(OC(C)C)cc3CCN2C(=S)c2cccc(Cl)c2)cc1 (stereo not shown) [Compound 138, (3-Chlorophenyl)(6-isopropoxy-1-((4-methoxyphenoxy)methyl)-3,4-dihydroisoquinolin-2(1H)-yl)methanethione]

fold increase in potency at GluN2B, thioamide compared to amide [5]: 13 fold
SMILES: CCOc1ccc(OCC2c3ccc(OC(C)C)cc3CCN2C(=S)c2cccc(F)c2)cc1 (stereo not shown) [Compound 142, (1-((4-Ethoxyphenoxy)methyl)-6-isopropoxy-3,4-dihydroisoquinolin-2(1H)-yl)(3-fluorophenyl)methanethione]

SMILES: CCOc1ccc(OC[C@H]2c3ccc(OC(C)C)cc3CCN2C(=S)c2cccc(F)c2)cc1 [R-(+)-142, (R)-(1-((4-Ethoxyphenoxy)methyl)-6-isopropoxy-3,4-dihydroisoquinolin-2(1H)-yl)(3-fluorophenyl)methanethione]
activity / subunit selectivity in words [11]: no detectable potentiation of any NMDA receptor subunit combinations

SMILES: CC(C(O)c1ccc(O)cc1)N1CCC(Cc2ccccc2)CC1 (stereo not shown) [ifenprodil]
fold more potent at GluN2B-containing receptors compared to GluN2A, GluN2C, or GluN2D [14]: > 100 fold
